From patent US8962608B2, “Cycloalkylnitrile pyrazole carboxamides as janus kinase inhibitors” (Merck Sharp & Dohme Corp., priority 2011, dated 2015)
Counter-ions that a name gives are not always drawn.

Experiments:
[1] = biological target: JAK1 (recombinant purified GST-tagged catalytic domain) (Homo sapiens (Human), UniProt P23458); assay: biochemical;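 further: biochemical assay with HTRF read-out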
[2] = biological target: JAK2 (recombinant purified GST-tagged catalytic domain) (Homo sapiens (Human), UniProt O60674); assay: biochemical;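 further: biochemical JAK kinase assay with HTRF detection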
Chain of JAK2 (recombinant purified GST-tagged catalytic domain) (O60674 849-1124): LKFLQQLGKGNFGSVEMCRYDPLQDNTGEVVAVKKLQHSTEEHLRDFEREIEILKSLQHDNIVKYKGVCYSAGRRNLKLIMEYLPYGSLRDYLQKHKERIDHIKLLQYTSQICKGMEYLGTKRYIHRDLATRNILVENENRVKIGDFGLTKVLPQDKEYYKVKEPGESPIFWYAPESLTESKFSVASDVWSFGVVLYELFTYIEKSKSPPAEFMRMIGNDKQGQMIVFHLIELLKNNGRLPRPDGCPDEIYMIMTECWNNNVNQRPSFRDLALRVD

Chain of JAK1 (recombinant purified GST-tagged catalytic domain) (P23458 875-1153): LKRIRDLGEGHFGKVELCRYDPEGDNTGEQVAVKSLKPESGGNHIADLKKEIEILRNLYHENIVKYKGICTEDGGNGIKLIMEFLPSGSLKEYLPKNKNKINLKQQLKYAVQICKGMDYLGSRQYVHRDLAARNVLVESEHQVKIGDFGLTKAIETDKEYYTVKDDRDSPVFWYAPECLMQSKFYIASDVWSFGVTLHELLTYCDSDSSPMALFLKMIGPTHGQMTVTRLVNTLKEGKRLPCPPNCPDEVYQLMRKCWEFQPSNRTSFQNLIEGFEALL

IC50 [1] [nM] | IC50 [2] [nM] | Compound
0.6 | 39 | N#C[C@H]1C[C@@H](NC(C2CC2)C2CC2)CC[C@@H]1n1cc(C(N)=O)c(Nc2ccc(S(=O)(=O)C(F)(F)F)cc2)n1 (single isomer, unassigned) [Example 28-180, 1-{(1S,2S,4S or 1R,2R,4R)-2-cyano-4-[(dicyclopropyl-methyl)amino]cyclohexyl}-3-({4-[(trifluoro-methyl)sulfonyl]phenyl}amino)-1H-pyrazole-4-carboxamide]
1 | 44 | CC1CN([C@H]2CC[C@H](n3cc(C(N)=O)c(Nc4ccccc4)n3)[C@@H](C#N)C2)C1 (single isomer, unassigned) [Example 28-141, 1-[(1S,2S,4S or 1R,2R,4R)-2-cyano-4-(3-methylazetidin-1-yl)cyclohexyl]-3-(phenylamino)-1H-pyrazole-4-carboxamide]
4 | 34 | N#C[C@H]1CCCC[C@@H]1n1cc(C(N)=O)c(Nc2ccc(F)c(F)c2)n1 (racemic) [Example 17-100, 1-[(1S,2S and 1R,2R)-2-cyanocyclohexyl]-3-[(3,4-difluorophenyl)amino]-1H-pyrazole-4-carboxamide]
165 | 1000 | N#C[C@H]1C[C@H](N[C@H](C2CC2)C(F)(F)F)CC[C@@H]1n1cc(C(N)=O)c(Nc2ccc(C(F)(F)F)cc2)n1 (single isomer, unassigned) [Example 28-193, 1-[(1S,2S,4R or 1R,2R,4S)-2-cyano-4-{[(1R)-1-cyclopropyl-2,2,2-trifluoroethyl]amino}cyclo-hexyl]-3-{[4-(trifluoromethyl)phenyl]amino}-1H-pyrazole-4-carboxamide]
21 | 74 | N#C[C@@H]1C[C@H](OCC2CC2)CC[C@@H]1n1cc(C(N)=O)c(Nc2ccnc(F)c2)n1 (single isomer, unassigned) [Example 26-4, 1-[(1S,2R,4R or 1R,2S,4S)-2-cyano-4-(cyclopropylmethoxy)cyclohexyl]-3-[(2-fluoropyridin-4-yl)amino]-1H-pyrazole-4-carboxamide]
33 | 243 | N#C[C@H]1C[C@@H](C(=O)NC2COC2)CC[C@@H]1n1cc(C(N)=O)c(Nc2ccc(Cl)cc2)n1 (single isomer, unassigned) [Example 35-7, 3-[(4-chlorophenyl)amino]-1-[(1S,2S,4S or 1R,2R,4R)-2-cyano-4-(oxetan-3-ylcarbamoyl)cyclohexyl]-1H-pyrazole-4-carboxamide]
13 | 59 | N#C[C@H]1C[C@@](O)(C2CC2)CC[C@@H]1n1cc(C(N)=O)c(Nc2ccc(Cl)c(F)c2)n1 (single isomer, unassigned) [Example 32-1, 3-[(4-Chloro-3-fluorophenyl)amino]-1-[(1S,2S,4S or 1R,2R,4R)-2-cyano-4-cyclopropyl-4-hydroxycyclohexyl]-1H-pyrazole-4-carboxamide]
3 | 38 | N#C[C@@H]1C[C@H](C(=O)NCC(F)(F)F)CCC1n1cc(C(N)=O)c(Nc2ccc(Cl)cc2)n1 (single isomer, unassigned) [Example 35-10, 3-[(4-chlorophenyl)amino]-1-{(1R,2R,4R or 1S,2S,4S)-2-cyano-4-[(2,2,2-trifluoroethyl)carbamoyl]cyclohexyl}-1H-pyrazole-4-carboxamide]
0.65 | 4 | CC(C)(O)[C@H]1CC[C@H](n2cc(C(N)=O)c(Nc3ccc(Cl)cc3)n2)[C@@H](C#N)C1 (single isomer, unassigned) [Example 36-1, 3-(4-chlorophenylamino)-1-((1S,2S,4S or 1R,2R,4R)-2-cyano-4-(2-hydroxypropan-2-yl)cyclohexyl)-1H-pyrazole-4-carboxamide]
0.3 | 9 | N#C[C@H]1C[C@@H](NCc2ccccc2)CC[C@@H]1n1cc(C(N)=O)c(Nc2ccnc(F)c2)n1 (single isomer, unassigned) [Example 28-97, 1-[(1S,2S,4S or 1R,2R,4R)-4-(benzylamino)-2-cyanocyclohexyl]-3-[(2-fluoropyridin-4-yl)amino]-1H-pyrazole-4-carboxamide]
20 | 184 | CC(=O)O[C@H]1C[C@H](C#N)[C@@H](n2cc(C(N)=O)c(Nc3ccc(C(F)(F)F)cc3)n2)C[C@@H]1O [Example 41]
7 | 173 | CN(C)[C@@H]1CC[C@H](n2cc(C(N)=O)c(Nc3ccc(Cl)c(F)c3)n2)[C@@H](C#N)C1 (single isomer, unassigned) [Example 28-38, 3-[(4-chloro-3-fluorophenyl)amino]-1-[(1S,2S,4R or 1R,2R,4S)-2-cyano-4-(dimethylamino)cyclohexyl]-1H-pyrazole-4-carboxamide]
0.4 | 18 | CC(=O)c1ccc(Nc2nn([C@H]3CC[C@@H](N4CCC4)C[C@@H]3C#N)cc2C(N)=O)cc1 (single isomer, unassigned) [Example 28-83, 3-[(4-acetylphenyl)amino]-1-[(1S,2S,4R or 1R,2R,4S)-4-azetidin-1-yl-2-cyanocyclohexyl]-1H-pyrazole-4-carboxamide]
1 | 11 | CN(CC1(C)COC1)[C@H]1CCC(n2cc(C(N)=O)c(Nc3ccc(Cl)cc3)n2)[C@@H](C#N)C1 (single isomer, unassigned) [Example 28-219, 3-[(4-chlorophenyl)amino]-1-[(1S,2S,4S or 1R,2R,4R)-2-cyano-4-{methyl[(3-methyloxetan-3-yl)methyl]amino}cyclohexyl]-1H-pyrazole-4-carboxamide]
3 | 60 | Cn1cc(-c2cc(Nc3nn([C@H]4CCCC[C@@H]4C#N)cc3C(N)=O)ccn2)cn1 (racemic) [Example 17-22, 1-[(1S,2S and 1R,2R)-2-cyanocyclohexyl]-3-{[2-(1-methyl-1H-pyrazol-4-yl)pyridin-4-yl]amino}-1H-pyrazole-4-carboxamide]
8 | 33 | N#C[C@H]1C[C@@H](O)CC[C@@H]1n1cc(C(N)=O)c(Nc2ccc(C(F)F)nc2)n1 (single isomer, unassigned) [Example 33-8, 1-[(1S,2S,4S or 1R,2R,4R)-2-cyano-4-hydroxycyclohexyl)-3-{I6-(difluoromethyl)pyridin-3-yl]amino}-1H-pyrazole-4-carboxamide]
0.8 | 13 | N#C[C@H]1C[C@@H](CF)CC[C@@H]1n1cc(C(N)=O)c(Nc2ccnc(F)c2)n1 (racemic) [Example 37, 1-[(1S,2S,4S and 1R,2R,4R)-2-Cyano-4-(fluoromethyl)cyclohexyl]-3-[(2-fluoropyridin-4-yl)amino]-1H-pyrazole-4-carboxamide]
1 | 35 | N#C[C@H]1C[C@@H](N)CCC1n1cc(C(N)=O)c(Nc2ccc(F)cc2)n1 (mixture of isomers) [Example 29, (1S,3S,4S and 1R,3R,4R)-4-{4-Carbamoyl-3-[(4-fluorophenyl)amino]-1H-pyrazol-1-yl}-3-cyanocyclohexanaminium trifluoroacetate]
12 | 26 | N#C[C@H]1CCCC[C@@H]1n1cc(C(N)=O)c(Nc2ccc(C3CC3)nc2)n1 (single isomer, unassigned) [Example 17-80, 1-[(1R,2R or 1S,2S)-2-cyanocyclohexyl]-3-[(6-cyclopropylpyridin-3-yl)amino]-1H-pyrazole-4-carboxamide]
